Test results: ChEMBL document CHEMBL4052808, “Novel anti-prostate cancer scaffold identified by the combination of in silico and cell-based assays targeting the PI3K-AKT-mTOR pathway” (Bioorg Med Chem Lett, 2017)
Activity calls are given as the source filed them. No cut-off for these calls is given here.

Legend:
[1] = system: DU-145; assay: Cytotoxicity against human DU145 cells by MTT assay; format: functional, cell-based
[2] = system: PC-3; assay: Cytotoxicity against human PC3 cells by MTT assay; format: functional, cell-based
[3] = species on record: Homo sapiens; assay: Inhibition of […] pathway in human PC3 cells assessed as phosphorylation of AKT at ser473 residues at 100 uM after 1 hr by PerCP probe based flow cytometric analysis (reference value: 43.92%); format: cell-based
[4] = Selectivity index, ratio of cytotoxic concentration against mouse Balb/c 3T3 clone A31 cells to EC50 for human PC3 cells; format: functional
[5] = species on record: Homo sapiens; assay: Inhibition of […] pathway in human PC3 cells assessed as phosphorylation of S6 at ser235 residues at 100 uM after 1 hr by alexa fluor 488 probe based flow cytometric analysis (reference value: 48.58%); format: cell-based
[6] = Cytotoxicity against mouse Balb/c 3T3 clone A31 cells assessed as cell viability at 100 uM by MTT assay relative to control; format: cell-based; settings: read-out: Activity

| SMILES | EC50 [1] [µM] | EC50 [2] [µM] | Activity [1] | inhibition [3] [%] | Selectivity Index [4] | inhibition [5] [%] | viability at 100 µM [6] [%] |
| --- | --- | --- | --- | --- | --- | --- | --- |
| COCC[n+]1c2c(n(Cc3cnccn3)c1C)C(=O)c1ccccc1C2=O [SEPANTRONIUM BROMIDE] | 0.0138 | 0.092 |  |  |  |  |  |
| Cc1ccccc1SC1CCN(C(=O)c2ccc(N)nc2)CC1 |  | 60.7 | inactive | 34.8 | >1.65 | 15.5 | 95.4 |
| CO[C@H]1C[C@@H]2CC[C@@H](C)[C@@](O)(O2)C(=O)C(=O)N2CCCC[C@H]2C(=O)O[C@H]([C@H](C)C[C@@H]2CC[C@@H](O)[C@H](OC)C2)CC(=O)[C@H](C)/C=C(\C)[C@@H](O)[C@@H](OC)C(=O)[C@H](C)C[C@H](C)/C=C/C=C/C=C/1C [SIROLIMUS] |  | 43.1 |  | 28.9 | >2.32 | 7.24 | 58.3 |
| Nc1ccc(C(=O)N2CCC(Cc3ccc(F)cc3)CC2)cn1 |  | 75 | inactive | 39.4 | >1.33 | 14 | 68.1 |
